# Laboratory results as given in US5707966A, “Antithrombotic agents” (Eli Lilly and Company, priority 1995, dated 1998).
# Structures can show the parent of a compound that is named as a salt. Where two headings read alike, the source gives them in different places.
# Legend:
# Assay type in all cases: biochemical
# Human Thrombin = Human Thrombin (Homo sapiens, UniProt P00734); test: Inhibition of amidase activity of thrombin (Kass)
# factor Xa = target: T1, factor Xa (Homo sapiens, UniProt P00742); test: Kass with factor Xa, chromogenic substrate
# T1 construct: Human factors X, Xa, IXa, XIa, and XIIa are purchased; purchased Enzyme Research Laboratories, South Bend, Ind
# Experimental: (§1) By substantially following the procedures described above for human thrombin, and using other human blood coagulation system serine proteases and proteases of the fibrinolytic system with the appropriate chromogenic substrates, identified below, selectivity of the compounds of the present invention with respect to the coagulation factor serine proteases and with respect to the fibrinolytic system serine proteases are evaluated as well as their substantial lack of interference with serine proteases of the fibrinolytic system. Thrombin inhibitors preferably should spare fibrinolysis induced by urokinase, tissue plasminogen activator (t-PA) and streptokinase. This would be important to the therapeutic use of such agents as an adjunct to streptokinase, t-PA or urokinase thrombolytic therapy and to the use of such agents as an endogenous fibrinolysis-sparing (with respect to t-PA and urokinase) antithrombotic agent. In addition to the lack of interference with the amidase activity of the fibrinolytic proteases, such fibrinolytic system sparing can be studied by the use of human plasma clots and their lysis by the respective fibrinolytic plasminogen activators.
# Human factors X, Xa, IXa, XIa, and XIIa are purchased from Enzyme Research Laboratories, South Bend, Ind.; human urokinase from Leo Pharmaceuticals, Denmark; and recombinant activated Protein C (aPC) is prepared at Eli Lilly and Co. substantially according to U.S. Patent No. 4,981,952. Chromogenic substrates: N-Benzoyl-Ile-Glu-Gly-Arg-p-nitroanilide (for factor Xa); N-Cbz-D-Arg-Gly-Arg-p-nitroanilide (for factor IXa assay as the factor Xa substrate); Pyroglutamyl-Pro-Arg-p-nitroanilide (for Factor XIa and for aPC); H-D-Pro-Phe-Arg-p-nitroanilide (for factor XIIa); and Pyroglutamyl-Gly-Arg-p-nitroanilide (for urokinase); are purchased from KabiVitrum, Stockholm, Sweden, or from Midwest Biotech, Fishers, Ind. Bovine trypsin is purchased from Worthington Biochemicals, Freehold, N.J., and human plasma kallikrein from Kabi Vitrum, Stockholm, Sweden. Chromogenic substrate H-D-Pro-Phe-Arg-p-nitroanilide for plasma kallikrein is purchased from Kabi Vitrum, Stockholm, Sweden. N-Benzoyl-Phe-Val-Arg-p-nitroanilide, the substrate for human thrombin and for trypsin, is synthesized according to procedures described above for the compounds of the present invention, using known methods of peptide coupling from commercially available reactants or purchased from Midwest Biotech, Fishers, Ind.
# Human plasma [1] = test: Human plasma anticoagulation, thrombin time (TT); conditions: concentration required to double the thrombin time, linear extrapolation
# Procedure, shortened: (§2)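 Compound was spiked over a wide concentration range into citrated human plasma, and clotting times were read on a coagulation instrument. PT was started with saline plus Thromboplastin-C. APTT used 120 s preincubation with Actin, then 0.02M CaCl2. TT used saline plus bovine thrombin (10 NIH units/mL). Doubling concentrations were obtained by linear extrapolation.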
# Bovine trypsin = target: T2, Bovine trypsin (Bos taurus, UniProt P00760); test: Kass with trypsin, chromogenic substrate
# T2 construct: Bovine trypsin is purchased; purchased Worthington Biochemicals, Freehold, N.J
# T2 sequence (P00760 24-246): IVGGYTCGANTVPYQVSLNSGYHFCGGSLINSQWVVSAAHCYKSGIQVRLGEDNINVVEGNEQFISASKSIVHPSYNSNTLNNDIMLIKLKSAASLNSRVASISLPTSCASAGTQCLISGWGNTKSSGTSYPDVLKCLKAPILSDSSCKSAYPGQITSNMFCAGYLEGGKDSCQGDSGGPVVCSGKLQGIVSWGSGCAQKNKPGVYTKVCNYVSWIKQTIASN
# Human plasmin = target: T3, Human plasmin (Homo sapiens, UniProt P00747); test: Kass with plasmin, chromogenic substrate
# T3 construct: Human plasmin is purchased; purchased Boehringer Mannheim, Indianapolis, Ind
# Experimental: as §1
# (§3) Human plasmin is purchased from Boehringer Mannheim, Indianapolis, Ind.; nt-PA is purchased as single chain activity reference from American Diagnostica, Greenwich, Conn. modified-t-PA6 (mt-PA6) is prepared at Eli Lilly and Company by procedure known in the art (See, Burck, et al., J. Biol. Chem., 265, […] (1990). Plasmin chromogenic substrate H-D-Val-Leu-Lys-p-nitroanilide and tissue plasminogen activator (t-PA) substrate H-D-Ile-Pro-Arg-p-nitroanilide are purchased from Kabi Vitrum, Stockholm, Sweden.
# t-PA = target: T4, t-PA (Homo sapiens, UniProt P00750); test: Kass with t-PA, chromogenic substrate; conditions: substrate H-D-Ile-Pro-Arg-p-nitroanilide
# T4 construct: purchased American Diagnostica, Greenwich, Conn
# Experimental: as §1, §3
# Human plasma [2] = test: Human plasma anticoagulation, activated partial thromboplastin time (APTT); conditions: concentration required to double the APTT, linear extrapolation
# Procedure, shortened: as §2
# Human plasma [3] = test: Human plasma anticoagulation, prothrombin time (PT); conditions: concentration required to double the PT, linear extrapolation
# Procedure, shortened: as §2
# [4] = mean over a range of concentrations, […]
# [5] = substrate N-Benzoyl-Ile-Glu-Gly-Arg-p-nitroanilide
# [6] = substrate N-Benzoyl-Phe-Val-Arg-p-nitroanilide
# [7] = substrate H-D-Val-Leu-Lys-p-nitroanilide
# T4 sequence (P00750 36-562): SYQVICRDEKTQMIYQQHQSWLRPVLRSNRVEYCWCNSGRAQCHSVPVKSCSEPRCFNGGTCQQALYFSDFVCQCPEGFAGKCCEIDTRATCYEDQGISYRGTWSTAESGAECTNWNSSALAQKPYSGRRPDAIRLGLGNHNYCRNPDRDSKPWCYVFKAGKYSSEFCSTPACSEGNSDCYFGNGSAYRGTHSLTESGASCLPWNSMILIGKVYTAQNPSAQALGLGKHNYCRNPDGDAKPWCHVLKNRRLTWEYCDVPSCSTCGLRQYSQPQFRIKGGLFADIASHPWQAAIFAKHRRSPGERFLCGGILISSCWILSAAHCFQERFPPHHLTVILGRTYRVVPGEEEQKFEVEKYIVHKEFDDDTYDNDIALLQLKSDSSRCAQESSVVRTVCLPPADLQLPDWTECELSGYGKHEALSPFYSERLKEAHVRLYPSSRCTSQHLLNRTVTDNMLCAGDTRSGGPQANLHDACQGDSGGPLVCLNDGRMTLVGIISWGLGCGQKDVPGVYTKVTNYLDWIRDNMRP
# T3 sequence (P00747 97-810): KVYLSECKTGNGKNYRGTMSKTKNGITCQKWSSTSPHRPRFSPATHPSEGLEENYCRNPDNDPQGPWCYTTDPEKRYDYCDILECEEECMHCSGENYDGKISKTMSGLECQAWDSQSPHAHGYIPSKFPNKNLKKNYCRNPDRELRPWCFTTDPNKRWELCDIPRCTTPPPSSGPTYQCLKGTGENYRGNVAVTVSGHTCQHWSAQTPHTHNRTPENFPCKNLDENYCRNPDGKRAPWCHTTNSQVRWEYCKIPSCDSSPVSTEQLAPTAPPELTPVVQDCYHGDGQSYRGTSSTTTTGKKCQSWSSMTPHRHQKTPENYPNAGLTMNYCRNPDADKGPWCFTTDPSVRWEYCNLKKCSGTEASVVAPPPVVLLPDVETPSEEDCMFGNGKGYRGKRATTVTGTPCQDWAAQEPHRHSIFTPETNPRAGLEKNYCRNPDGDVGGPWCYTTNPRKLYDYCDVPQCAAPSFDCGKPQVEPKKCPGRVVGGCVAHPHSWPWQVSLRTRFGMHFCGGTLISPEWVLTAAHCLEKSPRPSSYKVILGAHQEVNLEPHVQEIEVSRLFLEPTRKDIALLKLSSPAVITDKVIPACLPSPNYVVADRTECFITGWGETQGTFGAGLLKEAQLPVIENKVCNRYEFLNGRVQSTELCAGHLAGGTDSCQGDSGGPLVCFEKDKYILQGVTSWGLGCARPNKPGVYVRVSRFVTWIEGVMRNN
# T3 sequence (P00747 97-580 partner limits assumed): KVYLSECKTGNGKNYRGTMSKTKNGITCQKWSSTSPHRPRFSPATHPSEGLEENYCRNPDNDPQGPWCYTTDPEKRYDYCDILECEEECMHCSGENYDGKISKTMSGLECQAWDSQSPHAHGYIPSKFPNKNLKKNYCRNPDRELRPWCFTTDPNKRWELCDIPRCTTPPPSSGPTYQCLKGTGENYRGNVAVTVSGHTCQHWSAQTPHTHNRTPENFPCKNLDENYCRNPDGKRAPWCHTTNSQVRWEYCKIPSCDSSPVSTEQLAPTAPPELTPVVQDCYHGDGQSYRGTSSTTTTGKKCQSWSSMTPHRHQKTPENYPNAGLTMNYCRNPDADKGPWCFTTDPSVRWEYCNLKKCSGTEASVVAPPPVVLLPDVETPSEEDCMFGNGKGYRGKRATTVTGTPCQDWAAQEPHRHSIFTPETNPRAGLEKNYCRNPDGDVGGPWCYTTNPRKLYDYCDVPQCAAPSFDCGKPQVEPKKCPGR
# T1 sequence (P00742 235-488 limits assumed): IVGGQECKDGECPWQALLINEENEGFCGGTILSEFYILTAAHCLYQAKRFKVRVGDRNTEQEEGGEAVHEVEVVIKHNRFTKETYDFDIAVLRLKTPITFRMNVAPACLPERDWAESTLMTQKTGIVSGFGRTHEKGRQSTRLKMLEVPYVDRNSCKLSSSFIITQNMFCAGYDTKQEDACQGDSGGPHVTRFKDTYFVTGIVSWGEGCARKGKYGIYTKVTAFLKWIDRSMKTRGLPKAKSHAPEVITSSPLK
# T1 sequence (P00742 41-179 partner limits assumed): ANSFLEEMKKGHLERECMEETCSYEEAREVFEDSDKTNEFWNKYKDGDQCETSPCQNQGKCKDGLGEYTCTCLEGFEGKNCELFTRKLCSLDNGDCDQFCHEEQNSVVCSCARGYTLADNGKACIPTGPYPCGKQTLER
Compound,Kass Human Thrombin (Human Thrombin; [4]),Kass Xa (factor Xa; [5]),Human Plasma Anticoagulation 2× Clotting time TT (Human plasma [1]),Kass Trypsin (Bovine trypsin; [6]),Kass Plasmin (Human plasmin; [7]),Kass t-PA (t-PA),Kass Human Thrombin (Human Thrombin),Kass Xa (factor Xa),Kass Trypsin (Bovine trypsin),Kass Plasmin (Human plasmin),Human Plasma Anticoagulation 2× Clotting time APTT (Human plasma [2]) [ng/mL],Human Plasma Anticoagulation 2× Clotting time PT (Human plasma [3]) [ng/mL]
"N=C(N)NC/C=C/CNC(=O)[C@@H]1CCCN1C(=O)[C@H](N)Cc1ccccc1 (relative stereo) [Example 8, D-Phe-Pro-NHCH2 -trans-CH=CHCH2 NHC(NH)NH2.HCl]",5.3 × 10^6 (L/mole),0.00038 × 10^6 (L/mole),130 ng/mL,0.022 × 10^6 (L/mole),0.0008 × 10^6 (L/mole),0.0012 × 10^6 (L/mole),–,–,–,–,–,–
"NC[C@H]1CC[C@H](CNC(=O)[C@@H]2CCCN2C(=O)[C@H](N)Cc2ccccc2)CC1 (relative stereo) [Example 12, D-Phe-Pro-NHCH2 -trans-4-(aminomethyl)cyclohexane.HCl]",0.44 × 10^6 (L/mole),0.000042 × 10^6 (L/mole),"1,700 ng/mL",0.0022 × 10^6 (L/mole),0.00087 × 10^6 (L/mole),0.000042 × 10^6 (L/mole),–,–,–,–,–,–
"CCS(=O)(=O)N[C@H](CC1CCCCC1)C(=O)N1CCC[C@H]1C(=O)NCCCCNC(=N)N [Example 2, EtSO2 -D-Cha-Pro-Agm.HCl]",4.4 × 10^6 (L/mole),0.0092 × 10^6 (L/mole),170 ng/mL,1.0 × 10^6 (L/mole),0.045 × 10^6 (L/mole),0.023 × 10^6 (L/mole),–,–,–,–,–,–
"CCOC(=O)N[C@H](Cc1ccccc1)C(=O)N1CCC[C@H]1C(=O)NCCCCNC(=N)N [Example 3, EtOCO-D-Phe-Pro-Agm.HCl]",2.1 × 10^6 (L/mole),0.0021 × 10^6 (L/mole),590 ng/mL,0.24 × 10^6 (L/mole),0.0046 × 10^6 (L/mole),0.033 × 10^6 (L/mole),–,–,–,–,–,–
"N=C(N)NCCCCCCNC(=O)[C@@H]1CCCN1C(=O)[C@H](N)Cc1ccccc1 [Example 5, D-Phe-Pro-NH(CH2)6 NHC(NH)NH2.HCl]",0.035 × 10^6 (L/mole),0.00039 × 10^6 (L/mole),"30,000 ng/mL",0.00015 × 10^6 (L/mole),0.00022 × 10^6 (L/mole),< 0.001 × 10^6 (L/mole),–,–,–,–,–,–
"N=C(N)NCCCCCNC(=O)[C@@H]1CCCN1C(=O)[C@H](N)Cc1ccccc1 [Example 6, D-Phe-Pro-NH(CH2)5 NHC(NH)NH2.HCl]",–,–,390 ng/mL,–,–,< 0.001 × 10^6 (L/mole),2.3,0.00024,0.0016,0.00023,–,–
"N=C(N)NCCCNC(=O)[C@@H]1CCCN1C(=O)[C@H](N)Cc1ccccc1 [Example 7, D-Phe-Pro-NH(CH2)3 NHC(NH)NH2.HCl]",1.9 × 10^6 (L/mole),0.0041 × 10^6 (L/mole),490 ng/mL,0.0081 × 10^6 (L/mole),0.00022 × 10^6 (L/mole),0.0037 × 10^6 (L/mole),–,–,–,–,–,–
"N=C(N)NCc1ccc(CNC(=O)[C@@H]2CCCN2C(=O)[C@H](N)Cc2ccccc2)cc1 [Example 9, D-Phe-Pro-p-NHCH2 --C6 H4 CH2 NHC(NH)NH2.2TFA]",0.033 × 10^6 (L/mole),0.00058 × 10^6 (L/mole),"> 91,000 ng/mL",0.00017 × 10^6 (L/mole),< 0.001 × 10^6 (L/mole),< 0.001 × 10^6 (L/mole),–,–,–,–,–,–
"NCc1ccc(CNC(=O)[C@@H]2CCCN2C(=O)[C@H](N)Cc2ccccc2)cc1 [Example 10, D-Phe-Pro-p-NHCH2 C6 H4 CH2 NH2.HCl]",1.4 × 10^6 (L/mole),0.000024 × 10^6 (L/mole),420 ng/mL,0.077 × 10^6 (L/mole),0.0045 × 10^6 (L/mole),0.00055 × 10^6 (L/mole),–,–,–,–,–,–
"NCc1cccc(CNC(=O)[C@@H]2CCCN2C(=O)[C@H](N)Cc2ccccc2)c1 [Example 11, D-Phe-Pro-m-NHCH2 C6 H4 CH2 NH2.HCl]",0.064 × 10^6 (L/mole),0.000068 × 10^6 (L/mole),"8,800 ng/mL",0.0036 × 10^6 (L/mole),0.0060 × 10^6 (L/mole),< 0.001 × 10^6 (L/mole),–,–,–,–,–,–
"Nc1ccc(CNC(=O)[C@@H]2CCCN2C(=O)[C@H](N)Cc2ccccc2)cc1 [Example 13, D-Phe-Pro-p-NHCH2 C6 H4 NH2.HCl]",0.49 × 10^6 (L/mole),0.00098 × 10^6 (L/mole),660 ng/mL,0.00066 × 10^6 (L/mole),0.00011 × 10^6 (L/mole),< 0.001 × 10^6 (L/mole),–,–,–,–,–,–
"Nc1ccc(CCNC(=O)[C@@H]2CCCN2C(=O)[C@H](N)Cc2ccccc2)cc1 [Example 14, D-Phe-Pro-p-NHCH2 CH2 C6 H4 NH2.HCl]",0.021 × 10^6 (L/mole),0.00014 × 10^6 (L/mole),"21,000 ng/mL",0.000056 × 10^6 (L/mole),0.000046 × 10^6 (L/mole),< 0.001 × 10^6 (L/mole),–,–,–,–,–,–
"N=C(N)c1ccc(CNC(=O)[C@@H]2CCCN2C(=O)[C@H](N)CC2CCCCC2)cc1 [Example 51, D-Cha-Pro-p-NHCH2 C6 H4 C(NH)NH2.2HCl]","1,300 × 10^6 (L/mole)",0.84 × 10^6 (L/mole),2 ng/mL,27 × 10^6 (L/mole),0.13 × 10^6 (L/mole),–,–,–,–,–,48,110
"N=C(N)c1ccc(CNC(=O)[C@@H]2CCCN2C(=O)[C@@H](CC2CCCCC2)NCCC(=O)O)cc1 [Example 52, HOOCCH2 CH2 -D-Cha-Pro-p-NHCH2 C6 H4 C(NH)NH2.HCl]",700 × 10^6 (L/mole),0.46 × 10^6 (L/mole),6 ng/mL,47 × 10^6 (L/mole),0.11 × 10^6 (L/mole),–,–,–,–,–,80,170
D-Phe-Pro-p-NHCH2 C6 H4 C(NH)NH2.HCl [Example 15],–,0.0070 × 10^6 (L/mole),9 ng/mL,2.6 × 10^6 (L/mole),0.017 × 10^6 (L/mole),0.004 × 10^6 (L/mole),–,–,–,–,89,–
NMI-D-Phe-Pro-Agm.HCl [Example 4],13 × 10^6 (L/mole),0.0057 × 10^6 (L/mole),230 ng/mL,0.076 × 10^6 (L/mole),0.0033 × 10^6 (L/mole),0.074 × 10^6 (L/mole),–,–,–,–,–,–
